The text below walks through data of patent publication US20220096592A1, “PIC1 VARIANTS WITH IMPROVED SOLUBILITY AND METHODS OF USING THE SAME” (priority 2019, published 2022).

Entries after “also recorded” stand apart in the source; their conditions may differ.

One assay concerns complement activation. The settings on record: administered intravascularly into rats, by 30 seconds; cited from earlier work.
In another assay the test system is C5a generation. Kind of assay: C5a ELISA of supernatant, antibody-sensitized human platelets in normal human serum. The assay is classed as cell-based. On the procedure: (§1) For experiments sensitizing platelets with human anti-platelet antibody, purified platelets were treated with 4% ITP sera for 15 minutes at 30° C. before adding 2% normal human complement sufficient sera and incubating for 30 minutes at 37° C. For samples containing PIC1, sera and PIC1 were pre-incubated for 5 minutes before combining with sensitized platelets. Samples were then spun and supernatant was removed for C5a analysis by ELISA. A C5a ELISA kit (R&D Systems) was used per manufacturer's instructions. The cells were washed once with GVBS^−− and once with water to lyse the platelets. The remaining cell pellet was treated with 25 mM methylamine for 1 hour at 37° C., spun, and the supernatant was analyzed for iC3b by ELISA. The ELISA for iC3b was performed as previously described, utilizing a goat anti-human C3 antibody (Complement Technology, Tyler, Tex.) for capture, a mouse anti-human iC3b antibody (Quidel, San Diego, Calif.) for probing, and a goat anti-mouse HRP (Sigma-Aldrich, St Louis, Mo.) for detection.
Plasma recovered from these experiments was then assayed for the pro-inflammatory anaphylatoxin C5a by ELISA.
(In an ELISA, binding on a coated surface is turned into a signal by an enzyme label.)

The test system of assay [1] is Wistar rat sera complement-mediated killing of human platelets. Kind of assay: viability of human platelets in Wistar rat sera (Presto Blue). The settings on record: increasing concentrations, vs platelets in normal rat sera, P<0.017, FIG. 7C. Format: cell-based. As to the method:
For experiments using rat sera, purified platelets were incubated with 5% Wistar rat sera at different time points (5 min, 20 min and 60 min) in a 37° C. bath. Thereafter, GVBS^−− was added to the mixture and this was spun at 500 g for 5 min at 22° C. After resuspending with 250 ul of PBS, PrestoBlue was added to the cells at a 1:10 dilution and incubated in a 37° C. water bath for 30 min. The cells were then plated and read on a microplate reader at 530 nm. With the addition of PIC1 to sera, there was a preincubation time of 5 minutes before addition of platelets.
In order to evaluate the extent to which rat sera killing of human platelets is mediated by the classical pathway of complement, we utilized PA-dPEG24.

Assay [2] deals with C3 activation on the platelet surface. Kind of assay: iC3b ELISA of antibody-sensitized human platelets in normal human serum. Format: cell-based. As to the method:
as §1
Human platelets were incubated with sensitizing antibody, NHS, or both. […] Complement attack of the platelets and cell viability were assayed. C3 is the central component of the complement activation cascades. The C3 fragment iC3b is an opsonin that contributes to phagocytosis. […]

In the next assay the test system is human platelets. Kind of assay: viability of antibody-sensitized human platelets in normal human serum (Presto Blue). Format: cell-based. On the procedure: For in vitro experiments, platelets were stained with PrestoBlue Cell Viability Reagent as per manufacturer's recommendations. For in vivo experiments, platelets were stained with PKH26 Red Fluorescent Cell Dye as per manufacturer's recommendations.
as §1
Cell viability of the platelets was measured by utilizing the vital dye, Presto Blue. […] These effects can be largely reversed in the presence of a classical complement pathway inhibitor.

The subject of assay [3] is transfused human platelets. The assay can be described thus: human platelets transfused into Wistar rats (platelet refractoriness model). The assay is classed as in vivo, Wistar rat. On the procedure:
Male Wistar rats approximately 16 weeks old and 250 grams in weight were purchased (Hilltop Scottdale, Pa.) with indwelling intra jugular catheters in place. Rats were sedated with ketamine and acepromazine throughout the course of the experiment with monitoring of vital signs. PIC1 infusions were performed 30 seconds prior to transfusion with PKH26 stained human platelets. Blood samples were collected into K2EDTA microtainer tubes (BD, Franklin Lakes, N.J., USA) from the animals prior to transfusion and then at 0.5, 2, 5, 20, 60 and 120 min after transfusion. Upon completion of the final blood draw, the animals were euthanized using Fatal Plus (Vortech Pharmaceuticals, Dearborn, Mich., USA). A necropsy was completed after euthanasia to collect organs for histopathology.
Flow cytometry was performed using a FACSCalibur flow cytometer (Becton Dickinson, Franklin Lakes, N.J., USA) with DXP 8 Color 488/637/407 upgrade (Cytek Development, Freemont, Calif., USA). The data was acquired using Cytek FlowJo CE version 7.5.110.7. Prior to analysis on the flow cytometry machine, whole rat blood was spun at 500×g for 5 min. The plasma platelet layer was removed and then diluted 1:10 with PBS. Approximately 20,000 events selected for platelet size were run on the […]. Data was analyzed using FlowJo V10.4.2 (FlowJo LLC, Ashland, Oreg., USA).
The unstained native rat platelets are to the left of the vertical line, and the stained transfused platelets are to the right. […] This difference is not noticeable at two minutes.
Total platelet counts for rats transfused with unstained platelets treated with PIC1 or saline control (as shown in FIG. 12B) were evaluated in order to evaluate if similar trends could be determined for unstained platelets. Platelet counts were measured for each blood sample by Antech Diagnostics (Chesapeake, Va.). Decreases in platelet counts were calculated for each time point compared with the maximal platelet count immediately after transfusion at 30 seconds.

Assay [4] deals with complement-mediated hemolysis of the patient's erythrocytes. The assay can be described thus: hemolytic complement assay with plasma and erythrocytes of a DHTR patient. The settings on record: complement permissive buffer GVBS++, increasing concentrations, FIG. 13; listed as PIC1. Format: cell-based, human. As to the method: Discarded de-identified blood was obtained from routine medical management blood draws from the patient prior to treatment with eculizumab. […] Complement permissive GVBS^++ buffer is veronal-buffered saline with 0.1% gelatin, 0.15 mM CaCl2, and 1 mM MgCl2 [11]. Complement inhibitory buffer GVBS^−− is a veronal-buffered saline with 0.1% gelatin and 10 mM EDTA. Approximately 5×10^7 washed erythrocytes were incubated with 20% plasma in a reaction volume of 0.15 ml for 1 hour at 37° C.
Erythrocytes were sedimented by centrifugation at 1,500×g for 5 minutes and the supernatant was then recovered. The supernatant was measured on a Bio Tek Synergy HT plate reader spectrophotometer for absorption at 412 nm. Hemolysis was measured by quantitation of free hemoglobin on the spectrophotometer at 412 nm.

“H2N-IALILEPICCQERAA-dPEG24 (H-IALILEPICCQERAA-dPEG24; cysteine pairing not given here) [PA-dPEG24, 15-amino acid PEGylated peptide, 24 PEG moieties at the C-terminus]”: the “systemic inhibition of complement activation” value with complement activation is recorded as over 90%. Besides, in the assay with C5a generation (1.5 mM, P=0.028), the “inhibition of C5a generation, in words” value is reported as “Significant inhibition of C5a generation”. For the same substance, the “decrease of C5a generation” value in the assay on C5a generation (3.0 mM, P=0.006) came out at 44%. Besides, in the assay on C5a generation (sensitizing antibody and NHS, increasing concentrations, FIG. 6B), the “C5a generation, dose response” value was “dose-dependently inhibited C5a generation”. In addition, the “viability of human platelets in rat sera” value in assay [1] is “dose-dependent improvement in platelet viability; also recorded: improved survival for human platelets in rat sera for all doses tested compared to control”. Moreover, the “iC3b bound to platelets” value in assay [2] (0.8 mM) is “level similar to that of the background level measured for sensitizing antibody alone”. In addition, the “iC3b opsonization of platelets, dose response” value in assay [2] (sensitizing antibody and NHS, increasing concentrations, FIG. 6A) is reported as “decreased iC3b opsonization of the platelets in a dose-dependent manner”. The “increase in platelet viability, in words” value in the assay with human platelets (1.5 mM, P=0.031) is “Significant increases in platelet viability”. In addition, the “increase in platelet viability” value in the assay with human platelets (3.0 mM, P=0.003) worked out at 53%. In addition, the “platelet viability, dose response” value in the assay with human platelets (sensitizing antibody and NHS, increasing concentrations, FIG. 6C) is reported as “Platelet viability dose-dependently increased”. The “increase in transfused platelets compared with control” value in assay [3] (160 mg/kg infused 30 seconds before transfusion, 0.5 minutes after transfusion, P=0.05, FIG. 12A) is reported as 2 fold. Further, the “stained transfused platelets, representative flow cytometry” value in assay [3] (160 mg/kg, 0.5 minutes after transfusion, vs vehicle, FIG. 11) is on record as “increased numbers of stained transfused platelets”. The “amount of transfused platelets compared with control” value in assay [3] (160 mg/kg, later time points than 0.5 minutes) is given as “no significant difference in the amount of transfused platelets”. Moreover, the “decrease in total platelet count relative to 30 seconds after transfusion” value in assay [3] (unstained platelets, two minutes (P=0.04) and 20 minutes (P=0.03), FIG. 12B) is reported as “Statistically significant greater decreases in the platelet count were found for saline-treated versus PA-dPEG24-treated animals”. In assay [4], the “hemolysis of patient erythrocytes by patient plasma” value is on record as “statistically significant dose-dependent decrease of hemolysis; also recorded: inhibited hemolysis to the background signal; also recorded: completely blocked at higher doses”.
